# According to ChEMBL document CHEMBL5154921, “Discovery and Characterization of the First Nonpeptide Antagonists for the Relaxin-3/RXFP3 System” (J Med Chem, 2022):
# Activity calls are given as the source filed them. The calls are words filed in the database; no cut-off is given here.
# Columns and labels:
# [1] = target: Alpha-2A adrenergic receptor (Homo sapiens) (UniProt P08913); test: Inhibition of adrenergic alpha-2A receptor (unknown origin) at 10 uM relative to control
# [2] = Kinetic aqueous solubility of the compound in PBS at pH 7.4 measured after 2 hrs by LC/MS-MS method; type: physicochemical; conditions: buffer, pH 7.4, 2 h
# [3] = target: Alpha-1D adrenergic receptor (Homo sapiens) (UniProt P25100); test: Inhibition of adrenergic alpha-1D receptor (unknown origin) at 10 uM relative to control
# Chain of Alpha-1D adrenergic receptor (Homo sapiens) (P25100 whole entry): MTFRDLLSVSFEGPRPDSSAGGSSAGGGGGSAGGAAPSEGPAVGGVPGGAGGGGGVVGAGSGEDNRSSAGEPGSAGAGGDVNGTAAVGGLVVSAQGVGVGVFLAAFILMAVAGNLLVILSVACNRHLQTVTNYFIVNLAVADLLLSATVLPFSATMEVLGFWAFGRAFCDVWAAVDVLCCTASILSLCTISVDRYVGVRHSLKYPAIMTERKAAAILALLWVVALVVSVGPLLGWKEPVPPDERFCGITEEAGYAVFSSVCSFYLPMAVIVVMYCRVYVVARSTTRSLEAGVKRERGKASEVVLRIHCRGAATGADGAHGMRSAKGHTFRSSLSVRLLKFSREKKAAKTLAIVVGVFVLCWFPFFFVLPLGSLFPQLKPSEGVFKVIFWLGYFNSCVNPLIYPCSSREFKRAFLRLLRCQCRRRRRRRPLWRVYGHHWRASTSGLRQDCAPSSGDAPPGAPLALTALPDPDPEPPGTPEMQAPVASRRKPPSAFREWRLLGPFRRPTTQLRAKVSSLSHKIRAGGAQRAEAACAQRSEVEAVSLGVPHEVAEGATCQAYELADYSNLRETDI
# [4] = target: Muscarinic acetylcholine receptor M1 (Homo sapiens) (UniProt P11229); test: Inhibition of muscarinic M1 receptor (unknown origin) at 10 uM relative to control
# [5] = target: Mu-type opioid receptor (Homo sapiens) (UniProt P35372); test: Inhibition of opioid u receptor (unknown origin) at 10 uM relative to control
# [6] = target: Relaxin-3 receptor 1 (Homo sapiens) (UniProt Q9NSD7); test: Negative allosteric modulator activity at human RXFP3 expressed in CHO-K1 cells assessed as [35S]GTPgammaS binding at 10 to 30 uM incubated for 1 hr by [35S]GTP-gammaS binding assay; type: functional, cell-based; conditions: filed as negative allosteric modulator, dose 10-30 µM
# Chain of Relaxin-3 receptor 1 (Homo sapiens) (Q9NSD7 whole entry): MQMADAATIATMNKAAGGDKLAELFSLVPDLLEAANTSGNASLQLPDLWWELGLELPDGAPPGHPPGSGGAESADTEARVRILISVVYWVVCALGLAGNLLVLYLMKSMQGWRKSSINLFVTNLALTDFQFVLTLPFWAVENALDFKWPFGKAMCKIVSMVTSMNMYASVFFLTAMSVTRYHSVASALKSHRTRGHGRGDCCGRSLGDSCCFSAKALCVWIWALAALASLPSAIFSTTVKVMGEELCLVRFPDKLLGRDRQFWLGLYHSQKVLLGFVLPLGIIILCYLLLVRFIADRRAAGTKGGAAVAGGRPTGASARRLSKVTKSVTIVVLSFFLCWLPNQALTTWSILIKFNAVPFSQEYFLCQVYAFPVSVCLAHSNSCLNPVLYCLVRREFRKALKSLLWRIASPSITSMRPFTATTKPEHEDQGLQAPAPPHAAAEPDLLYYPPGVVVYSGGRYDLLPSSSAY
# Rattus norvegicus = test: In vivo antagonist activity at RXFP3 in Wistar rat assessed as decrease in R3/I5 induced food intake at 10 mg/kg, ip administered 1 hr prior to R3/I5 treatment and measured after 2 hrs; type: functional, organism-based; conditions: time 3.0 hrs
# [7] = target: Sodium-dependent serotonin transporter (Homo sapiens) (UniProt P31645); test: Inhibition of SERT receptor (unknown origin) at 10 uM relative to control
# [8] = target: 5-hydroxytryptamine receptor 1D (Homo sapiens) (UniProt P28221); test: Inhibition of serotonin 5-HT1D receptor (unknown origin) at 10 uM relative to control
# [9] = Cmax in Wistar rat plasma at 10 mg/kg, ip measured upto 8 hrs post dose by LC-MS/MS analysis; type: ADME, organism-based; set-up: time < 8 hrs, dose 10 mg/kg, route ip; conditions: in vivo
# [10] = Ratio of AUC in brain to plasma or Wistar rat at 10 mg/kg, ip measured upto 8 hrs post dose by LC-MS/MS analysis; type: ADME, organism-based
# [11] = target: Muscarinic acetylcholine receptor M4 (Homo sapiens) (UniProt P08173); test: Inhibition of muscarinic M4 receptor (unknown origin) at 10 uM relative to control
# [12] = target: Sodium-dependent noradrenaline transporter (Homo sapiens) (UniProt P23975); test: Inhibition of NET receptor (unknown origin) at 10 uM relative to control
# Chain of Sodium-dependent noradrenaline transporter (Homo sapiens) (P23975 whole entry): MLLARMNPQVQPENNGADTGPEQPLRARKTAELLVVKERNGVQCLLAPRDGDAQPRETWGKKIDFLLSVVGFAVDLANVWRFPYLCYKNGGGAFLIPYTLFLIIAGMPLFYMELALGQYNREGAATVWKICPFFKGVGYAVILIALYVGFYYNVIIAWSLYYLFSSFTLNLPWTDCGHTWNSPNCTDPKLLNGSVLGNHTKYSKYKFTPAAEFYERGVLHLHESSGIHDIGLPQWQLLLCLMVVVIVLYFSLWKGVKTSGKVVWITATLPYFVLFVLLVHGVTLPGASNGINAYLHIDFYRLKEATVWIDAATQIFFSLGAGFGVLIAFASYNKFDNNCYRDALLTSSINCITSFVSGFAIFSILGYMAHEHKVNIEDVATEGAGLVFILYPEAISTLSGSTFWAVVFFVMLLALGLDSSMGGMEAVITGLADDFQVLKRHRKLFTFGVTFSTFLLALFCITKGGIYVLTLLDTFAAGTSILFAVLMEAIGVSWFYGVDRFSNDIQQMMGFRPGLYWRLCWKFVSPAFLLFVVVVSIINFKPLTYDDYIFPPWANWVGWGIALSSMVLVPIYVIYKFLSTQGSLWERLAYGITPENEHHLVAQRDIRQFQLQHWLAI
# [13] = target: Muscarinic acetylcholine receptor M3 (Homo sapiens) (UniProt P20309); test: Inhibition of muscarinic M3 receptor (unknown origin) at 10 uM relative to control
# [14] = target: 5-hydroxytryptamine receptor 1A (Homo sapiens) (UniProt P08908); test: Inhibition of serotonin 5-HT1A receptor (unknown origin) at 10 uM relative to control
# [15] = target: 5-hydroxytryptamine receptor 7 (Homo sapiens) (UniProt P34969); test: Inhibition of serotonin 5-HT7A receptor (unknown origin) at 10 uM relative to control
# Chain of 5-hydroxytryptamine receptor 7 (Homo sapiens) (P34969 whole entry): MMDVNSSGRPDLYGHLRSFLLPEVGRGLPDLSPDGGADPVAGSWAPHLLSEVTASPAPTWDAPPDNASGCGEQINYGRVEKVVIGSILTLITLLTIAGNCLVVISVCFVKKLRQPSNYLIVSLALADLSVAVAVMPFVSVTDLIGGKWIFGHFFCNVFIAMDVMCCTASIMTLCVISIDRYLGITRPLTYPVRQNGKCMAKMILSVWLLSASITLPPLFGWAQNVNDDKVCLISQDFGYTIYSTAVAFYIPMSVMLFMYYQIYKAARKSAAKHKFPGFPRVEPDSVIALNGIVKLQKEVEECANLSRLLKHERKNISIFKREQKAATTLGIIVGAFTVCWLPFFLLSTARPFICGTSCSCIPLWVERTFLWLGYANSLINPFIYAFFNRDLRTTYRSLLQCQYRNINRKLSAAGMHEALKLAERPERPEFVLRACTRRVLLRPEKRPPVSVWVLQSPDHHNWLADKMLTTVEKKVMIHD
# [16] = target: Sigma non-opioid intracellular receptor 1 (Homo sapiens) (UniProt Q99720); test: Inhibition of sigma1 receptor (unknown origin) at 10 uM relative to control
# [17] = target: Muscarinic acetylcholine receptor M2 (Homo sapiens) (UniProt P08172); test: Inhibition of muscarinic M2 receptor (unknown origin) at 10 uM relative to control
# Chain of Muscarinic acetylcholine receptor M2 (Homo sapiens) (P08172 whole entry): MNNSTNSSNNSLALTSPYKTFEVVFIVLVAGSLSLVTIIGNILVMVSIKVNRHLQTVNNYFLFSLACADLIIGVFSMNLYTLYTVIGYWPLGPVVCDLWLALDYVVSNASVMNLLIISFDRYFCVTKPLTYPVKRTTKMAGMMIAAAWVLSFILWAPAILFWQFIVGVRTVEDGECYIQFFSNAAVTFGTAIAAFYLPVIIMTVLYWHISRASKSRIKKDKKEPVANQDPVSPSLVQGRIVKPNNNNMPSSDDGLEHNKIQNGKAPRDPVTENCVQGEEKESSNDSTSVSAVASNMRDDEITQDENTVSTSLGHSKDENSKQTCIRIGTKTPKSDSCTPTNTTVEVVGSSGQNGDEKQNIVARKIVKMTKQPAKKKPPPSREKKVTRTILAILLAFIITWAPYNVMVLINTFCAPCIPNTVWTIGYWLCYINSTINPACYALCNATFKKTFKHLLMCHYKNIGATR
# [18] = target: 5-hydroxytryptamine receptor 1B (Homo sapiens) (UniProt P28222); test: Inhibition of serotonin 5-HT1B receptor (unknown origin) at 10 uM relative to control
# [19] = target: Beta-3 adrenergic receptor (Homo sapiens) (UniProt P13945); test: Inhibition of adrenergic beta-3 receptor (unknown origin) at 10 uM relative to control
# Chain of Beta-3 adrenergic receptor (Homo sapiens) (P13945 whole entry, looked up): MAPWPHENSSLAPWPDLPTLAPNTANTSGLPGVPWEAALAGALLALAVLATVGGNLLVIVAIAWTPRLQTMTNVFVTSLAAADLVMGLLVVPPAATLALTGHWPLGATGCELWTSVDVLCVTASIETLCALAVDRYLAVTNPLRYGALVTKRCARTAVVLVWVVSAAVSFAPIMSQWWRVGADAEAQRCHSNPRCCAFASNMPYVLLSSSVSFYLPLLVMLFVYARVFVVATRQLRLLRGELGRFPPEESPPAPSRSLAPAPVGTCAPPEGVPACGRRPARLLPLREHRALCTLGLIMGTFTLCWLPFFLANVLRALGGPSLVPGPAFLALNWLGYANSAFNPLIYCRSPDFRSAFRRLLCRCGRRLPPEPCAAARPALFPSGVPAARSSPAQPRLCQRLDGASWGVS
# [20] = target: Sigma intracellular receptor 2 (Homo sapiens, UniProt Q5BJF2); test: Inhibition of sigma-2 receptor (unknown origin) at 10 uM relative to control
# Chain of Sigma intracellular receptor 2 (Q5BJF2 whole entry): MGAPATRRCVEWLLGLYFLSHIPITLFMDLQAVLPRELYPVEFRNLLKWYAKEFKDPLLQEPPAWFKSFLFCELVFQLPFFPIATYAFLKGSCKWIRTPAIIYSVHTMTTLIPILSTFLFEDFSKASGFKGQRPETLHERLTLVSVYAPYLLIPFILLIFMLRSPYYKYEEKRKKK
# [21] = Tmax in Wistar rat plasma at 10 mg/kg, ip measured upto 8 hrs post dose by LC-MS/MS analysis; type: ADME, organism-based; conditions: in vivo
# [22] = target: 5-hydroxytryptamine receptor 2C (Homo sapiens) (UniProt P28335); test: Inhibition of 5HT2C receptor (unknown origin) at 10 uM relative to control
# Chain of 5-hydroxytryptamine receptor 2C (Homo sapiens) (P28335 whole entry): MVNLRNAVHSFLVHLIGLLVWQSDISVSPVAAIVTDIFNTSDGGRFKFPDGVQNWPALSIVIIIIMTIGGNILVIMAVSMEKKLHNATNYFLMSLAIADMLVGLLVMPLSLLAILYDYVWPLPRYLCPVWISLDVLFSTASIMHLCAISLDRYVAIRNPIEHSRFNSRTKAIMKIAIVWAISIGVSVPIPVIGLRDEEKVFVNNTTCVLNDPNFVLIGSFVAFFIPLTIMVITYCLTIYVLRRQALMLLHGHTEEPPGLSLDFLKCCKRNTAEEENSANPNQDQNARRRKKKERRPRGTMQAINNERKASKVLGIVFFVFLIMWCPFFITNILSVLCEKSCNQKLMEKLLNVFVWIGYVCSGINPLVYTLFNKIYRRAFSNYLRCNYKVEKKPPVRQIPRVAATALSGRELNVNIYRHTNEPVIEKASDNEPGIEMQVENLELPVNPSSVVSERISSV
# [23] = Cmax in Wistar rat brain at 10 mg/kg, ip measured upto 8 hrs post dose by LC-MS/MS analysis; type: ADME, organism-based; set-up: time < 8 hrs, dose 10 mg/kg, route ip
# [24] = Plasma protein binding in Wister rat at 1 uM measured after 6 hrs by LC-MS/MS analysis; type: ADME, cell-free
# [25] = target: Beta-1 adrenergic receptor (Homo sapiens) (UniProt P08588); test: Inhibition of adrenergic beta-1 receptor (unknown origin) at 10 uM relative to control
# Chain of Beta-1 adrenergic receptor (Homo sapiens) (P08588 whole entry, looked up): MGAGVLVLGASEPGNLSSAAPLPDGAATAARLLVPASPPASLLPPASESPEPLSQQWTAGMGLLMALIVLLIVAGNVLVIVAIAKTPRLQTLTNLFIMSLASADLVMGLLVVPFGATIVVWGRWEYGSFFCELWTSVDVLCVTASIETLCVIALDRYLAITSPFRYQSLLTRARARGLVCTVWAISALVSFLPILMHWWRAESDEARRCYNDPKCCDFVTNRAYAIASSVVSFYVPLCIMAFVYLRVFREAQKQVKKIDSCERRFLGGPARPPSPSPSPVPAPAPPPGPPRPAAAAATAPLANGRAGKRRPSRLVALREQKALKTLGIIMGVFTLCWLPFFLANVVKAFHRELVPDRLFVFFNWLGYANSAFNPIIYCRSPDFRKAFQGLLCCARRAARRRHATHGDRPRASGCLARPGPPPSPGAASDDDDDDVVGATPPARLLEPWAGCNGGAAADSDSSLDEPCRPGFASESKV
# [26] = target: Kappa-type opioid receptor (Homo sapiens) (UniProt P41145); test: Inhibition of opioid kappa receptor (unknown origin) at 10 uM relative to control
# Chain of Kappa-type opioid receptor (Homo sapiens) (P41145 whole entry): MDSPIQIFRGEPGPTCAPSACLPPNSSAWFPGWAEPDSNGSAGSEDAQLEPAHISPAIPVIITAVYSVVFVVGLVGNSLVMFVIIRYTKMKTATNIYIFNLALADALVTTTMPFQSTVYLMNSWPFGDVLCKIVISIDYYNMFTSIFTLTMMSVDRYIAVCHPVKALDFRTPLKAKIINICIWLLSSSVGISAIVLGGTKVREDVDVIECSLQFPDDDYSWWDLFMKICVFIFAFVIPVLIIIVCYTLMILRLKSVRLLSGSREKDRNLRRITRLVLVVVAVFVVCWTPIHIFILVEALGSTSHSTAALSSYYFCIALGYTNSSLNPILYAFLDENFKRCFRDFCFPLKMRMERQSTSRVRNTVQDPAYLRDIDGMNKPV
# [27] = AUCinfinity in Wistar rat plasma at 10 mg/kg, ip measured upto 8 hrs post dose by LC-MS/MS analysis; type: ADME, organism-based; set-up: dose 10 mg/kg, time < 8 hrs, route ip; conditions: in vivo
# [28] = target: D(4) dopamine receptor (Homo sapiens) (UniProt P21917); test: Inhibition of dopamine D4 receptor (unknown origin) at 10 uM relative to control
# [29] = Apparent permeability of the compound across apical to basolateral side in MDCK-MDRI cells measured upto 90 min by LC-MS/MS analysis; type: ADME, cell-based, Canis lupus familiaris; conditions: dog, mdck-mdr1, 1.5 h
# [30] = Half life in Wistar rat plasma at 10 mg/kg, ip measured upto 8 hrs post dose by LC-MS/MS analysis; type: ADME, organism-based; conditions: in vivo
# [31] = target: Alpha-2B adrenergic receptor (Homo sapiens) (UniProt P18089); test: Inhibition of adrenergic alpha-2B receptor (unknown origin) at 10 uM relative to control
# Chain of Alpha-2A adrenergic receptor (Homo sapiens) (P08913 whole entry): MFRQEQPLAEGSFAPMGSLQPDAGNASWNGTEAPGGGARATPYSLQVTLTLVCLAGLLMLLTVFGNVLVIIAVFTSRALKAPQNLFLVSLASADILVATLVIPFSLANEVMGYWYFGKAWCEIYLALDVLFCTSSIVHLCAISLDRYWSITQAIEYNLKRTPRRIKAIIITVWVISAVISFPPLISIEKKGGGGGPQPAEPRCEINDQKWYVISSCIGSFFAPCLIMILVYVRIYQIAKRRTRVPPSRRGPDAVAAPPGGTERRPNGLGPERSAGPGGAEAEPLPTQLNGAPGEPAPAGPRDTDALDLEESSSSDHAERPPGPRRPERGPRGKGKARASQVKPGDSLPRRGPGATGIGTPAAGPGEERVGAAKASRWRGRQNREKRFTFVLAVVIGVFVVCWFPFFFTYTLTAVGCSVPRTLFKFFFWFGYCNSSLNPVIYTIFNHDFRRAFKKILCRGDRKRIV
smiles,measurement,setting,value
O=C(Nc1ccc(-c2nc(-c3ccc(Cl)cc3)no2)cc1)C1CC(=O)N(Cc2ccco2)C1 (configuration not stated),inhibition,[1],< 50%
same,Kinetic_solubility,[2],< 1 µM
same,inhibition,[3],< 50%
same,inhibition,[4],< 50%
same,inhibition,[5],< 50%
same,Activity,[6],Active
same,Activity,Rattus norvegicus,Active
same,inhibition,[7],< 50%
same,inhibition,[8],< 50%
same,Cmax,[9],1401 ng/mL
same,Ratio,[10],2.3
same,inhibition,[11],< 50%
same,inhibition,[12],< 50%
same,inhibition,[13],< 50%
same,inhibition,[14],< 50%
same,inhibition,[15],< 50%
same,inhibition,[16],< 50%
same,inhibition,[17],51%
same,inhibition,[18],< 50%
same,inhibition,[19],< 50%
same,inhibition,[20],95%
same,Tmax,[21],0.5 h
same,inhibition,[22],53%
same,Cmax,[23],1550 ng/mL
same,PPB,[24],99.8%
same,inhibition,[25],< 50%
same,inhibition,[26],< 50%
same,AUC,[27],5352 ng·h/mL
same,inhibition,[28],< 50%
same,Papp,[29],1.3 10^-6 cm/s
same,t1/2,[30],1.9 h
same,inhibition,[31],< 50%
